ChEMBL document CHEMBL1201862, “PubChem BioAssay data set” (2004)
Active and inactive are the calls of the source.

How the values were obtained:
[1] = THP-1 cell cytotoxicity, dose response, cytotoxicity control for non-replicating M. tuberculosis project (AID 489025); assay type: functional
[2] = cells; assay type: functional
[3] = target: T1, E3 ubiquitin-protein ligase XIAP (Homo sapiens, UniProt P98170); assay: Counter Screen using XIAP-Bir3 for Chemical Antagonists of Bir1/2 domains of IAP-family anti-apoptotic proteins. [Related pubchem assays (depositor defined):AID1018, AID1449, AID1514, AID1638, AID1749, AID1750, AID488957, AID488963]
T1 sequence (P98170 whole entry): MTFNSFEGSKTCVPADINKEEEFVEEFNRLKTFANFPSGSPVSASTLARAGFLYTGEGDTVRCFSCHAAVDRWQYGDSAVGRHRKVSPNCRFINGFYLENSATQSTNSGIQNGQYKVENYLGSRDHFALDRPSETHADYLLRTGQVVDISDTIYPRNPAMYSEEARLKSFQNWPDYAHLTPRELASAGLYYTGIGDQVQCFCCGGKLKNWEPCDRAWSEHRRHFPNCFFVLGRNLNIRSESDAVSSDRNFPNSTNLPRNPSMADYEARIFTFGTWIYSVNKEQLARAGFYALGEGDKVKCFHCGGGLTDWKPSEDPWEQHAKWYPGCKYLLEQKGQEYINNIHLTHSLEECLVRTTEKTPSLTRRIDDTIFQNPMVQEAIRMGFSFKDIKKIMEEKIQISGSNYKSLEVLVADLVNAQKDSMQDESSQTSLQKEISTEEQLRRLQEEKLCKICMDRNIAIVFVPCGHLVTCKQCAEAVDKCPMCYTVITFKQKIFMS

[4] = target: T1, E3 ubiquitin-protein ligase XIAP; assay: small molecules displacing peptide from XIAP – biochemical, IAP family, fluorescence polarization (AID 1018); assay type: functional
[5] = target: T2, Zinc finger protein mex-5 (Caenorhabditis elegans, UniProt Q9XUB2); assay: potency of MEX-5 RNA-binding blockers – biochemical, C. elegans, fluorescence polarization, dose response (AID 1960)
T2 sequence (Q9XUB2 whole entry): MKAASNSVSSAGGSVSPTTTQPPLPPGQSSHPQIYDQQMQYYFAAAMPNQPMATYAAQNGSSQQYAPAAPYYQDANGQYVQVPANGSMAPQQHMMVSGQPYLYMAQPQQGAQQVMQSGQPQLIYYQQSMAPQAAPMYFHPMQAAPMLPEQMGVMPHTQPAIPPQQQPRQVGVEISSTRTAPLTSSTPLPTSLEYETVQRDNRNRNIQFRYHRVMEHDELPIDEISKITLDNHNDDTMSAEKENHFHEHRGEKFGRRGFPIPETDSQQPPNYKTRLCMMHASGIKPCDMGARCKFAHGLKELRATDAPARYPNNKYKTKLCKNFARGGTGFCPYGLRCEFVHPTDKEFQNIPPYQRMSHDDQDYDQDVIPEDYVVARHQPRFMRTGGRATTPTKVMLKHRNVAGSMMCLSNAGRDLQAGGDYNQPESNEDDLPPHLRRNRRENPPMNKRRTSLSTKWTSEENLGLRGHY

[6] = target: T3, RNA-binding protein pos-1 (Caenorhabditis elegans, UniProt G5EF15); assay: disruptors of C. elegans POS-1 RNA interaction – biochemical, fluorescence polarization, dose response (AID 1964);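 note: purified POS-1 fused to maltose binding protein made in E. coli; potency of compounds blocking POS-1 binding to fluorescent RNA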
T3 sequence (G5EF15 whole entry): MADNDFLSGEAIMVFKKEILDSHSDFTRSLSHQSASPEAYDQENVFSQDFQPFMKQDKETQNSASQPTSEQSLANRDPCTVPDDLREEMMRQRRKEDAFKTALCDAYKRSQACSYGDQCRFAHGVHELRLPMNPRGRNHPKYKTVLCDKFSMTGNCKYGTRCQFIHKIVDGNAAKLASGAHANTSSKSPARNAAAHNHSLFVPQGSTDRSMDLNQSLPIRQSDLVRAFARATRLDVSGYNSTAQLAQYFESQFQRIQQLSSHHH

[7] = target: Trypsin (Sus scrofa, UniProt P00761); assay: trypsin protease activity blockade – biochemical, quenched peptide fluorescence, cherry-pick, selectivity assay for Rce1 protease inhibitor project, dose response (AID 488789)
Chain of Trypsin (P00761 whole entry): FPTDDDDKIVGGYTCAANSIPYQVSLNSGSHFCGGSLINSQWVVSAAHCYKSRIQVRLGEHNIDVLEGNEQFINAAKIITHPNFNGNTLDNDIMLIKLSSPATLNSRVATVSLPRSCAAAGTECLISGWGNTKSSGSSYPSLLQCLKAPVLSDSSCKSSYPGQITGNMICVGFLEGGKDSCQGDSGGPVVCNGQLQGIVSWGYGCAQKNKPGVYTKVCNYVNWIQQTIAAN

[8] = target: T4, CAAX prenyl protease 2 (Homo sapiens, UniProt Q9Y256); assay: inhibition of Ras-converting CAAX protease Rce1 – biochemical, yeast membranes, quenched-peptide fluorescence, cherry-pick, dose response (AID 588849)
T4 sequence (Q9Y256 whole entry): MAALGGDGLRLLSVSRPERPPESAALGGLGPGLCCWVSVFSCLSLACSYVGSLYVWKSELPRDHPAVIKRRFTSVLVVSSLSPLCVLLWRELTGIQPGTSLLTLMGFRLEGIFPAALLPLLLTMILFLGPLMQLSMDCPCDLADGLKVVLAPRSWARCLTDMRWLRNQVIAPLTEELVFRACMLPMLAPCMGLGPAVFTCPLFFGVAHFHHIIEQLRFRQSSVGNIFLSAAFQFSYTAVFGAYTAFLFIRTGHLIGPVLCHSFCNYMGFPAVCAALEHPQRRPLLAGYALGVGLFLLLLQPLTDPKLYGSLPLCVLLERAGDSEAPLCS

[9] = target: T5, CAAX prenyl protease 2 (Saccharomyces cerevisiae S288c, UniProt Q03530); assay type: biochemical
T5 sequence (Q03530 whole entry): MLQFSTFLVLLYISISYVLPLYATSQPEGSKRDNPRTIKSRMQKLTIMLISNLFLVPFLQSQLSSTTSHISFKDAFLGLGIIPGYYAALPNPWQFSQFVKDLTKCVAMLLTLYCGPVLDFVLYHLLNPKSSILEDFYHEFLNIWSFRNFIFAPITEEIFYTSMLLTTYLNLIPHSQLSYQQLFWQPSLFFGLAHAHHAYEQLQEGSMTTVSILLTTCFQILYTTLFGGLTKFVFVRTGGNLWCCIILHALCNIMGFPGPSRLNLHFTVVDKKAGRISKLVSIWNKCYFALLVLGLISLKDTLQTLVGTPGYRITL

[10] = target: Glyceraldehyde-3-phosphate dehydrogenase (Homo sapiens, UniProt P04406)
Chain of Glyceraldehyde-3-phosphate dehydrogenase (P04406 whole entry): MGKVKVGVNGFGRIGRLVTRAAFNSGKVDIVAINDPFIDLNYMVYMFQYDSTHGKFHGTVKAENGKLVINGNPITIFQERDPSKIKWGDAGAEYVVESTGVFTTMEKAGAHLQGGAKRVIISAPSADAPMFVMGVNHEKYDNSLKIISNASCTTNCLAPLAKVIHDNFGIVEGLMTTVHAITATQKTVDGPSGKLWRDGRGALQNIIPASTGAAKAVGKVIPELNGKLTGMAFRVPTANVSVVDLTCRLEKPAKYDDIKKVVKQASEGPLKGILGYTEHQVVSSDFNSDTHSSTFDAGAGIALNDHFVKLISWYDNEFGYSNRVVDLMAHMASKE

[11] = target: T6, Microphthalmia-associated transcription factor (Homo sapiens, UniProt O75030); assay: reducers of TRPM1 reporter luminescence, concentration series – cell-based, SK-MEL-5, cherry-picked, set 3, MITF inhibitor project, dose response (AID 493073); assay type: functional;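 note: SK-MEL-5 melanoma cells with luciferase driven by the MITF target TRPM1 promoter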
T6 sequence (O75030 whole entry): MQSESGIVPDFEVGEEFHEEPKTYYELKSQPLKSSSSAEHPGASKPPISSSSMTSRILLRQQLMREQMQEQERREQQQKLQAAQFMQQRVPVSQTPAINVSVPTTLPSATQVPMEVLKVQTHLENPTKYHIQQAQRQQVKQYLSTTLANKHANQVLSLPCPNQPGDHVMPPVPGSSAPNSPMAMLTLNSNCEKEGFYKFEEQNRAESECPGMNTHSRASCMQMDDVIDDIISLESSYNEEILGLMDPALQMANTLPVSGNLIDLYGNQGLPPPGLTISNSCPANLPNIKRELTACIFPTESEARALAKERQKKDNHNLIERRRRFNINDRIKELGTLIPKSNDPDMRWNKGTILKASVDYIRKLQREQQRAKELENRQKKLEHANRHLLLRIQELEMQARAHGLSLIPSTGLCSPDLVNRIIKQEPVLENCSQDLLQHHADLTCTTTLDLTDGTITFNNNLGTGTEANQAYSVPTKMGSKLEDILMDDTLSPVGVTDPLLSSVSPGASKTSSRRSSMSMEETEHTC

[12] = target: T7, Heat shock factor protein 1 (Mus musculus, UniProt P38532); assay: decrease of HSF1-responsive luciferase luminescence – cell-based, NIH3T3, dose retest, confirmation (AID 2382); assay type: functional;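 note: NIH3T3 fibroblasts with HSF1-driven luciferase reporter stressed by proteasome inhibitor MG132; luminescence from HSF1-driven luciferase expression after 8 hours of MG132 stress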
T7 sequence (P38532 whole entry): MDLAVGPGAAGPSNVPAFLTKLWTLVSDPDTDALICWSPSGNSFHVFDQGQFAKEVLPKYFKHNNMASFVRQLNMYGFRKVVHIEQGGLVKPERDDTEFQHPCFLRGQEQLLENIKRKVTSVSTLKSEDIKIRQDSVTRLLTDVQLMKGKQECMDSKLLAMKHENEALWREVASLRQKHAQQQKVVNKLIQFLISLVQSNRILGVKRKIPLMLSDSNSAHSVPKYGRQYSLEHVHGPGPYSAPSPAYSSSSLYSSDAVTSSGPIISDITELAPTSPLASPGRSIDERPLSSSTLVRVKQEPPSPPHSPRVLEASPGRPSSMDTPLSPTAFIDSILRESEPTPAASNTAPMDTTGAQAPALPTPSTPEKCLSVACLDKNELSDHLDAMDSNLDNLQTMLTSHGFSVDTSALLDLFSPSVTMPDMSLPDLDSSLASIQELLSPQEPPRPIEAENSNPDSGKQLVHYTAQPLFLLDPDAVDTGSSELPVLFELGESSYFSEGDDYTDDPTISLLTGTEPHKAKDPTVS

[13] = target: Luciferin 4-monooxygenase (Photinus pyralis, UniProt P08659); assay: Counter Screen for Luciferase-based Assay Positives. [Related pubchem assays: 620, 618, 411 ]
Chain of Luciferin 4-monooxygenase (P08659 whole entry): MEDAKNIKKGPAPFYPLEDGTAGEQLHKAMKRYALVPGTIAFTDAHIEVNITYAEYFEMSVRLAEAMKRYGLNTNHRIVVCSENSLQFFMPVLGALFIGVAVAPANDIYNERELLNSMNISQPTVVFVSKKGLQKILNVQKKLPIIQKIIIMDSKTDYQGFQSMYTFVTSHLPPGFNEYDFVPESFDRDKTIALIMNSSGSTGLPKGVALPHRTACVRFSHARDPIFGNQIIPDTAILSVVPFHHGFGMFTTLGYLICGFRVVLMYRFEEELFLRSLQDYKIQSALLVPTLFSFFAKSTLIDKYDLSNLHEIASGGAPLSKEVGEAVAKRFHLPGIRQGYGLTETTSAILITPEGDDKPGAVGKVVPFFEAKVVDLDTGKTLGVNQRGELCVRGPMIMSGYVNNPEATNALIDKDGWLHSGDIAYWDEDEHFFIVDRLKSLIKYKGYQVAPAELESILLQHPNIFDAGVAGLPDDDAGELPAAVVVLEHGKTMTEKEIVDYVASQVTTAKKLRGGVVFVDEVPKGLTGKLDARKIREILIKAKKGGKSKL

[14] = test system: HT-1080; assay: HT1080 cell viability loss – fluorescence readout (AID 620); assay type: functional, cell-based; details: Homo sapiens
[15] = test system: INS1; assay: INS-1E survival protection against cytokine death – cell-based, luminescence, retest, dose response (AID 449756); assay type: functional; details: Rattus norvegicus;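 note: cell death triggered by IL-1 beta plus TNF-alpha plus IFN-gamma mixture; protective hits raise ATP signal compared with cytokine alone wells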
[16] = target: T8, Hexokinase HKDC1 (Homo sapiens, UniProt Q2TB90); assay: inhibition of HKDC1 glucose phosphorylation – biochemical, W721R variant, dose response (AID 504729); assay type: functional
T8 sequence (Q2TB90 whole entry): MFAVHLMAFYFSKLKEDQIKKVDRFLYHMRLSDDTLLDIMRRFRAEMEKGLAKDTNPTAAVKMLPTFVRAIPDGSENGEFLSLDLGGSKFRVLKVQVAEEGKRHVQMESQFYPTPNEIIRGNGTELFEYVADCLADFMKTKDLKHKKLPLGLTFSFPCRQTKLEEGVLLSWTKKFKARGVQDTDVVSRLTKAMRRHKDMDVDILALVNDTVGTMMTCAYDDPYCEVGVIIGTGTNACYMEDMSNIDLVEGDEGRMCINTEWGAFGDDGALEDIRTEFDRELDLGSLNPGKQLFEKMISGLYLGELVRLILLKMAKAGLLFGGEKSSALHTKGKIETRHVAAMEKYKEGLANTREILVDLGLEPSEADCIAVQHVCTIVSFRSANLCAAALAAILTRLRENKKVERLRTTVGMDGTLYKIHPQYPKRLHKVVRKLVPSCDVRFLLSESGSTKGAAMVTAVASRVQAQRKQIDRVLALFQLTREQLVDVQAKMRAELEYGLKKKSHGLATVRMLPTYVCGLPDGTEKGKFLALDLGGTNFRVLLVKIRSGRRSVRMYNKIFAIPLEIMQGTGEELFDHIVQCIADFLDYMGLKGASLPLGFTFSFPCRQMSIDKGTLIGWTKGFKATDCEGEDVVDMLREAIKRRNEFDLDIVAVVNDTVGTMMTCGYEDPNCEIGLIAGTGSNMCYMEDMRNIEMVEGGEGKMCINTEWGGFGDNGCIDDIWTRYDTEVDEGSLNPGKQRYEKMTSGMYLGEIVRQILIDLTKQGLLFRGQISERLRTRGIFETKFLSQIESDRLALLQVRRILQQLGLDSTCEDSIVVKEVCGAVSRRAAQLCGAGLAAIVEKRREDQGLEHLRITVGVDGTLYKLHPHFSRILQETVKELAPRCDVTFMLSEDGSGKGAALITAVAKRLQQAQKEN

[17] = viability loss of HPDE-C7K cells – cell-based, fluorescence, HTS, primary screen (AID 431); assay type: functional; details: Homo sapiens
[18] = HPDE-C7 pancreatic duct cell viability loss – fluorescence, HTS (AID 430); assay type: functional, cell-based; details: Homo sapiens
[19] = non-specific 3'UTR reporter inhibition in Clone20-Shn3RL – cell-based, Renilla luciferase, cherry-picked, counter-screen for Shn3 inhibitor project, dose response (AID 624133); assay type: functional
[20] = luciferase reporter signal suppression in cells – H4 neuroglioma cells, luminescence, dose response (AID 1990); assay type: functional, cell-based
[21] = alpha-synuclein stem-loop luciferase translation blockers – H4 neuroglioma cells, luminescence, confirmation (AID 1988); assay type: functional, cell-based
[22] = NIH3T3 cell viability loss – ATP luminescence, mouse fibroblasts, counter-screen, dose response (AID 2010); assay type: functional, cell-based;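 note: cells exposed to compound for about 90 hours before reading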
[23] = Luminescence Cell-Based Dose Response HTS to Identify Inhibitors of 5'UTR Stem-Loop Driven Prion Protein mRNA Translation in H4 Neuroglioblastoma Cells. [Related pubchem assays: 1827 (Project Summary), 1813 (Primary HTS)]; assay type: functional
[24] = Trypanosoma cruzi growth suppression in host cells – NIH3T3 host cells, beta-gal luminescence, confirmation (AID 2044); assay type: functional, cell-based;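 note: intracellular parasites grown in NIH/3T3 mouse fibroblasts as host cells; luminescent beta-galactosidase reporter signal from transgenic T. cruzi replicating inside host cells; inhibitors lower the luminescence signal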
[25] = reduction of Shn3 3'UTR-driven luciferase in osteoblasts – cell-based, Clone20 osteoblasts, firefly luciferase, cherry-picked, dose response (AID 624132); assay type: functional;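 note: firefly luciferase luminescence from reporter carrying the Shn3 3'UTR in osteoblasts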
[26] = loss of viability in HepG2 cells – cell-based, CellTiter-Glo, cherry-picked, cytotoxicity control for Shn3 inhibitor project, dose response (AID 624134); assay type: functional

Nc1nc2ccccc2n1CCOc1ccc(Br)cc1
CC50 [1]: 39.4 µM (active) | IC50 [2]: 31.8 µM (active)

Cc1cc(O)n2nc(N)c(N=Nc3ccccc3)c2n1
IC50 [3]: > 100 µM (inactive) | IC50 [4]: > 100 µM (not active) | EC50 [5]: 15.2 µM (active) | EC50 [6]: 37.8 µM (active)

COc1ccccc1-c1coc2c(CN3CCOCC3)c(O)ccc2c1=O
AC50 [7]: 44.4 µM (active) | AC50 [8]: 11.8 µM (active) | AC50 [9]: 52.5 µM (active)

Cc1cc(C(=O)Nc2cccc(C(=O)O)c2)oc1C
IC50 [10]: > 100 µM (not active) | AC50 [11]: 4.35 µM (active) | EC50 [12]: 6.56 µM (active) | EC50 [13]: < 0.2 µM (active) | EC50 [14]: > 50 µM (not active)

Cc1cc(C)n2nc(SCc3nnc(SCc4ccccc4C)s3)nc2n1
AC50 [15]: 22.9 µM (active) | IC50 [16]: 5.17 µM (active)

O=C(Oc1cccc2cccnc12)c1ccc2c(c1)OCCO2
EC50 [17]: 7.02 µM (active) | CC50 [1]: 22.8 µM (active) | EC50 [18]: 5.8 µM (active) | IC50 [2]: 3.9 µM (active)

C=CCn1cc(-c2ccccc2)cc(C#N)c1=O
AC50 [7]: 7.96 µM (active) | AC50 [8]: 6.89 µM (active)

CCOC(=O)c1nc2cc3n(c(C)c-2c1C)C(C)C(CC)=C3C (stereo not drawn)
AC50 [7]: 7.97 µM (active) | AC50 [8]: 8.45 µM (active) | AC50 [9]: 8.32 µM (active)

C=C(C)C1CC=C(C)/C(=N/NC(=O)CNc2ccc(C)cc2C)C1 (stereo not drawn)
IC50 [3]: > 100 µM (inactive) | IC50 [4]: > 100 µM (not active)

c1ccc(CCNc2ccnc3cc4ccccc4cc23)cc1
AC50 [19]: 3.45 µM (active) | AC50 [7]: 11.2 µM (active) | EC50 [20]: > 120 µM (not active) | EC50 [21]: 7.98 µM (active) | AC50 [8]: 94 µM (active) | EC50 [22]: > 30 µM (not active) | EC50 [23]: 17.3 µM (active) | AC50 [9]: 12.8 µM (active) | EC50 [24]: 1.68 µM (active) | AC50 [25]: 1.62 µM (active) | AC50 [26]: 8.78 µM (active)
